# Read-outs that look alike come from different tables or passages of the source.
# Columns and labels:
# Type in all cases: cell-based
# Jurkat = assay: Cytotoxicity assay (Cytotoxicity LDH Assay Kit); conditions: Jurkat cells, 24 h; read-out: CC50 ± SD against Jurkat
# Procedure: (§1) To determine the cytotoxicity induced by LRAs and its related compounds, cells (5 × 10^5 cells/mL) were cultured in the presence or absence of LRA. After 24 h, cytotoxicity assays were performed using a Cytotoxicity LDH Assay Kit (Dojindo, Kumamoto, Japan) according to the manufacturer’s instructions. The number of living cells with the drug was measured and compared with those without the drug, and data are shown as percentage (%) of control.
# A3.01 = assay: Cytotoxicity assay (Cytotoxicity LDH Assay Kit); conditions: A3.01 cells, 24 h; read-out: CC50 ± SD against A3.01
# Procedure: as §1
# ACH-2 = assay: Cytotoxicity assay (Cytotoxicity LDH Assay Kit); conditions: ACH-2 cells, 24 h; read-out: CC50 ± SD against ACH-2
# Procedure: as §1
# J1.1 = assay: Cytotoxicity assay (Cytotoxicity LDH Assay Kit); conditions: J1.1 cells, 24 h; read-out: CC50 ± SD against J1.1
# Procedure: as §1
# U1 = assay: Cytotoxicity assay (Cytotoxicity LDH Assay Kit); conditions: U1 cells, 24 h; read-out: CC50 ± SD against U1
# Procedure: as §1
# HL-60 = assay: Cytotoxicity assay (Cytotoxicity LDH Assay Kit); conditions: HL-60 cells, 24 h; read-out: CC50 ± SD against HL-60
# Procedure: as §1
# U937 = assay: Cytotoxicity assay (Cytotoxicity LDH Assay Kit); conditions: U937 cells, 24 h; read-out: CC50 ± SD against U937
# Procedure: as §1
# OM10.1 = assay: Cytotoxicity assay (Cytotoxicity LDH Assay Kit); conditions: OM10.1 cells, 24 h; read-out: CC50 ± SD against OM10.1
# Procedure: as §1
# [1] = tested on: latent HIV-1-infected ACH-2 cells; assay: HIV reactivation from latent cells: supernatant p24 antigen; conditions: ACH-2 cells; for viral production (supernatant p24 antigen levels): day 2, single drug (Figure 1A)
# Procedure: (§2) The reactivation of HIV-1 from latently infected cells was determined by the measurement of supernatant p24 antigen and intracellular HIV-1 RNA levels. ACH-2 cells or U1 cells (5 × 10^5 cells/mL) were placed in 96-well plates, and then the cells were incubated with different concentrations of drugs for 24 h to extract RNA and for 48 h to collect the supernatant. The increase in supernatant p24 antigen levels was measured using […] G1200 (Fujirebio, Tokyo, Japan). The total RNA was extracted using an RNeasy Mini Kit (Qiagen, Hilden, Germany), following the manufacturer’s protocols. The cDNA was synthesized using PrimeScript RT Master Mix (Takara Bio, Shiga, Japan), and quantitative real-time PCR analyses for the intracellular HIV-1 RNA were carried out with PowerUp^TM SYBR Green Master Mix (Applied Biosystems, Foster City, CA, United States). The oligonucleotide primers used were as follows: 5′-[…]-3′ (forward) and 5′-[…]-3′ (reverse) for HIV-RNA detection; 5′-[…]-3′ (forward) and 5′-[…]-3′ (reverse) for β-actin. The HIV-RNA expressions were normalized with that of β-actin, which was indicated as the relative quantity, and the increase in HIV-1 RNA levels in the presence of a drug was compared with that without a drug.
# (§3) FIGURE 1 (A,B) The increase in viral production from ACH-2 cells (A) and U1 cells (B) was examined by supernatant p24 antigen levels on day 2. (C,D) Changes in the intracellular HIV-1 mRNA levels due to treatment with these drugs in ACH-2 cells (C) and U1 cells (D) after 24 h of incubation.
# FIGURE 2 (A) Effect of birinapant when combined with TNF-α. The supernatant p24 levels with birinapant (1∼100 nM) in ACH-2 cell culture on day 2 are shown in white bars, and p24 values with birinapant when combined with TNF-α (10 ng/ml) are shown in black bars. (B) HIV-1 production from ACH-2 cells when reactivated by PEP005 (0.05∼50 nM) for 24 h. (C) Changes in the living cell numbers in the presence of drug(s) on days 1, 3, and 5.
# [2] = tested on: latent HIV-1-infected U1 cells; assay: as above; conditions: day 2, single drug (Figure 1B)
# Procedure: as §2, §3
# HIV-1 NL4-3 = assay: Antiviral assay, HIV-1 NL4-3 in MT-4 cells; conditions: MT-4 cells, cultured for 12 days, single drug
# Procedure: as §1, with “Antiviral assays using wild type HIV-1 (HIV-1 NL4-3) cells and MT-4 cells were conducted as previously described ([Maeda et al., 2014]; [Takamatsu et al., 2015]). To” for “To”
# Supplementary file Data_Sheet_1.PDF: FIGURE S1 The combined effect of an RT inhibitor (EFdA/MK-8591) ([Nakata et al., 2007]; [Kawamoto et al., 2008]; [Maeda et al., 2014]) and PKC activator (PEP005) on the replication of HIV-1 NL4-3 in MT-4 cells. MT-4 cells were infected with HIV-1 NL4-3 in the presence or absence of drug(s), cultured for 12 days, and the supernatant p24 levels were measured. Click here for additional data file.
# [3] = Cytotoxicity assay (Cytotoxicity LDH Assay Kit); conditions: human
# Procedure: as §1
# cIAP = assay: Determination of cIAP expression (western blotting); conditions: ACH-2 cells, 24 h; birinapant 50 nM, PEP005 5 nM, TNF-α 10 ng/ml
# Procedure: ACH-2 cells (1 × 10^6 cells/ml) were treated with different concentrations of the drug for 24 h, and the cells were washed twice with PBS. Cells were homogenized by CelLytic M Cell Lysis Reagent (Sigma-Aldrich, St. Louis, MO, United States) containing a protease inhibitor cocktail (Nacalai Tesque, Kyoto, Japan) and were incubated at room temperature (RT) for 15 min. The cells were then centrifuged at 13,000 rpm for 15 min, and the supernatant of the whole cell lysate was collected. The bicinchoninic acid (BCA) protein assay (Thermo Scientific, Rockford, IL, United States) was used to measure the actual protein amount in the treated and untreated cells. The protein extracts were separated through sodium dodecyl sulfate polyacrylamide gel electrophoresis (SDS-PAGE) and then were blotted onto a Trans Blot Turbo polyvinylidene difluoride (PVDF) membrane (Bio-Rad, Hercules, CA, United States). Protein bands were visualized using 3,3′,5,5′-tetramethylbenzidine (TMB) solution (Wako Pure Chemical). The sources of the antibodies were as follows: c-IAP1 (D5G9), c-IAP2 (58C7), and XIAP (3B6) were purchased from Cell Signaling Technology (Danvers, MA, United States); β-actin (C4) was purchased from Santa Cruz Biotechnology.
# Supplementary file Data_Sheet_5.PDF: FIGURE S5 Western blotting (WB) analysis for IAP family proteins in ACH-2 cells. Cells were exposed to birinapant (50 nM) in the presence or absence of PEP005 (5 nM), with TNF-α (10 ng/ml) co-treatment for 24 h, and cell lysates were used for WB analysis. Click here for additional data file.
# [4] = A3.01 cells, read-out: CC50 ± SD against A3.01
# [5] = ACH-2 cells, read-out: CC50 ± SD against ACH-2
# [6] = HL-60 cells, read-out: CC50 ± SD against HL-60
# [7] = J1.1 cells, read-out: CC50 ± SD against J1.1
# [8] = Jurkat cells, read-out: CC50 ± SD against Jurkat
# [9] = OM10.1 cells, read-out: CC50 ± SD against OM10.1
# [10] = U1 cells, read-out: CC50 ± SD against U1
# [11] = U937 cells, read-out: CC50 ± SD against U937
compound,measurement,setting,value
FC(F)(F)Oc1ccc2nc(-c3ccc(OCCOCCOc4ccc(-c5nc6ccc(OC(F)(F)F)cc6[nH]5)nc4)cn3)[nH]c2c1 [AI-10-49],CC50,Jurkat,1.1 ± 0.07 µM
same,CC50,A3.01,> 100 µM
same,CC50,ACH-2,41 ± 10 µM
same,CC50,J1.1,> 100 µM
same,CC50,U1,> 100 µM
same,CC50,HL-60,> 100 µM
same,CC50,U937,> 100 µM
same,CC50,OM10.1,> 100 µM
same,viral production (supernatant p24 antigen levels),[1],failed to increase the p24 levels
same,viral production (supernatant p24 antigen levels),[2],failed to increase the p24 levels
"C#C[C@]1(CO)O[C@@H](n2cnc3c(N)nc(F)nc32)C[C@@H]1O [EFdA/MK-8591, 4′-ethynyl-2-fluoro-2′-deoxyadenosine]",replication of HIV-1 NL4-3 (supernatant p24),HIV-1 NL4-3,potently inhibited the replication
CCCCOc1nc(N)c2c(n1)N(Cc1cccc(CN3CCCC3)c1)CC(=O)N2 [GS-9620],CC50 at 24 h,[3]; [4],> 100 µM
same,CC50 at 24 h,[3]; [5],> 100 µM
same,CC50 at 24 h,[3]; [6],> 100 µM
same,CC50 at 24 h,[3]; [7],35 ± 1.3 µM
same,CC50 at 24 h,[3]; [8],23 ± 0.3 µM
same,CC50 at 24 h,[3]; [9],> 100 µM
same,CC50 at 24 h,[3]; [10],> 100 µM
same,CC50 at 24 h,[3]; [11],> 100 µM
same,viral production (supernatant p24 antigen levels),[1],failed to increase the p24 levels
same,viral production (supernatant p24 antigen levels),[2],failed to increase the p24 levels
CCNC(=O)C[C@@H]1N=C(c2ccc(Cl)cc2)c2cc(OC)ccc2-n2c(C)nnc21 [GSK525762A],viral production (supernatant p24 antigen levels),[1],increased viral production
same,viral production (supernatant p24 antigen levels),[2],increased viral production
Cc1sc2c(c1C)C(c1ccc(Cl)cc1)=N[C@@H](CC(=O)OC(C)(C)C)c1nnc(C)n1-2 [JQ-1],viral production (supernatant p24 antigen levels),[1],increased viral production
same,viral production (supernatant p24 antigen levels),[2],increased viral production
O=C(CCCCCCC(=O)Nc1ccccc1)NO [SAHA],CC50 at 24 h,[3]; [4],> 100 µM
same,CC50 at 24 h,[3]; [5],9 ± 1.2 µM
same,CC50 at 24 h,[3]; [6],> 100 µM
same,CC50 at 24 h,[3]; [7],> 100 µM
same,CC50 at 24 h,[3]; [8],90 ± 2 µM
same,CC50 at 24 h,[3]; [9],> 100 µM
same,CC50 at 24 h,[3]; [10],> 100 µM
same,CC50 at 24 h,[3]; [11],> 100 µM
same,viral production (supernatant p24 antigen levels),[1],increased viral production
same,viral production (supernatant p24 antigen levels),[2],increased viral production
Ro5-3335,CC50,Jurkat,> 100 µM
same,CC50,A3.01,> 100 µM
same,CC50,ACH-2,> 100 µM
same,CC50,J1.1,> 100 µM
same,CC50,U1,> 100 µM
same,CC50,HL-60,> 100 µM
same,CC50,U937,> 100 µM
same,CC50,OM10.1,> 100 µM
same,viral production (supernatant p24 antigen levels),[1],failed to increase the p24 levels
same,viral production (supernatant p24 antigen levels),[2],failed to increase the p24 levels
TNF-α,increase of supernatant HIV-1 (p24) levels compared with unstimulated cells,"[1]; TNF-α 10 ng/ml, day 2 (Figure 2A)",> 20 fold
same,supernatant HIV-1 p24 levels,"[1]; after 24 h, PEP005 5 nM and higher (Figure 2B)",reactivated and increased the supernatant HIV-1 p24 levels
same,cIAP expression (western blotting),cIAP,upregulation of cIAP-1 (and cIAP-2)

# From paper PMC6156138, “Combination of a Latency-Reversing Agent With a Smac Mimetic Minimizes Secondary HIV-1 Infection in vitro” (Frontiers in Microbiology, 2018)
